Structures can show the parent of a compound that is named as a salt. Where two headings read alike, the source gives them in different places.
Target: T1, human adenosine A2A receptor (Homo sapiens, UniProt P29274)
T1 construct: expressed in transfected cells; host or cells: CHO cells, semliki forest virus expression system; membrane preparation
Assay: Human adenosine A2A receptor [3H]-SCH-58261 binding assay
Description: The gene encoding human adenosine A2A receptor was recombinantly introduced and expressed in chinese hamster ovary (CHO) cells using the semliki forest virus expression system. Cells were harvested, washed twice by centrifugation, homogenised and again washed by centrifugation. The final washed membrane pellet was suspended in a Tris (50 mM) buffer containing 120 mM NaCl, 5 mM KCl, 2 mM CaCl2 and 10 mM MgCl2 (pH 7.4) (buffer A). The [^3H]-SCH-58261 (Dionisotti et al., 1997, Br. J. Pharmacol. 121, 353; 1 nM) binding assay was carried out in 96-well plates in the presence of 2.5 μg of membrane protein, 0.5 mg of Ysi-poly-1-lysine SPA beads and 0.1 U adenosine deaminase in a final volume of 200 μl of buffer A. Non-specific binding was defined using xanthine amine congener (XAC; […]). Compounds were tested at 10 concentrations from 10 μM-0.3 nM. All assays were conducted in duplicate and repeated at least two times. Assay plates were incubated for 1 hour at room temperature before centrifugation and then bound ligand determined using a Packard Topcount scintillation counter. IC50 values were calculated using a non-linear curve fitting program and Ki values calculated using the Cheng-Prussoff equation.

[1] = human A2a receptor, membranes of CHO cells, [3H]-SCH-58261, read-out: pKi (affinity to the human A2a receptor) (converted)

T1 sequence (P29274 whole entry): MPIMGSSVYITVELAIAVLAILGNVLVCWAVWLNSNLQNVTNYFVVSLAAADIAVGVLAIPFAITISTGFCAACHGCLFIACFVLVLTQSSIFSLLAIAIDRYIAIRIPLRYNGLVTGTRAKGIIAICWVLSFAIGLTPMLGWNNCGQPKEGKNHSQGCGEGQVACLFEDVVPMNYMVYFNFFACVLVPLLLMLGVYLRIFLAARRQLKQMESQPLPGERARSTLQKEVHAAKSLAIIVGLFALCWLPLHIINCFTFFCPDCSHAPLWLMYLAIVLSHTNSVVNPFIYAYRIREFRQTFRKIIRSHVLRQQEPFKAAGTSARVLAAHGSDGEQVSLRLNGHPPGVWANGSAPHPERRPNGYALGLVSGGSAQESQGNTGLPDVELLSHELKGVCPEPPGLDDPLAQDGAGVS

Compound	Ki [1] [nM]	other results
Nc1nc(SCCc2ccccc2)c(Br)c(-c2ccco2)n1 [Example 269, 5-Bromo-4-furan-2-yl-6-phenethylsulfanyl-pyrimidin-2-yl-amine]	7.76	–
Nc1nc(OCC=Cc2ccccc2)c(Br)c(-c2ccco2)n1 [Example 280, 5-Bromo-4-furan-2-yl-6-(3-phenyl-allyloxy)-pyrimidin-2-yl-amine]	9.33	–
N#Cc1c(N)nc(SCc2ccccc2)c(C#N)c1-c1cccs1 [Example 389, 2-Amino-6-benzylsulfanyl-4-thiophen-2-yl-pyridine-3.5-dicarbonitrile]	8.32	–
N#Cc1coc(-c2nc(N)nc(SCCc3ccccn3)c2C#N)c1 [Example 535, 2-Amino-4-(4-cyano-furan-2-yl)-6-(2-pyridin-2-yl-ethylsulfanyl)-pyrimidine-5-carbonitrile]	3.98	–
N#Cc1c(OCCc2ccccn2)nc(N)nc1-c1cccc(F)c1 [Example 405, 2-Amino-4-(3-fluoro-phenyl)-6-(2-pyridin-2-yl-ethoxy)-pyrimidine-5-carbonitrile]	7.41	–
N#Cc1c(-c2ccccc2)nc(N)nc1-c1ccco1 [Example 148, 2-Amino-4-furan-2-yl-6-phenyl-pyrimidine-5-carbonitrile]	–	Ki: 6.46 nM
N#Cc1c(NCc2ccc3ccccc3n2)cc(N)nc1-c1ccco1 [Example 364, 6-Amino-2-furan-2-yl-4-[(quinolin-2-ylmethyl)-amino]-nicotinonitrile]	3.89	–
CC(C)Oc1nc(N)nc(-c2ccco2)c1C#N [Example 61, 2-Amino-4-furan-2-yl-6-isopropoxy-pyrimidine-5-carbonitrile]	6.92	–
Cc1ccnc(CNc2nc(N)nc(C3=CCCO3)c2C#N)c1 [Example 464, 2-Amino-4-(4,5-dihydro-furan-2-yl)-6-[(4-methyl-pyridin-2-ylmethyl)-amino]-pyrimidine-5-carbonitrile]	–	pKi (affinity to the human A2a receptor) (human A2a receptor, membranes of CHO cells, [3H]-SCH-58261): 8.12
Cc1coc(-c2nc(N)nc(SCCc3ccccn3)c2C#N)c1 [Example 422, 2-Amino-4-(4-methyl-furan-2-yl)-6-(2-pyridin-2-yl-ethylsulfanyl)-pyrimidine-5-carbonitrile]	1.35	–
N#Cc1c(NCc2ccccn2)cc(N)nc1-c1ccco1 [Example 371, 6-Amino-2-furan-2-yl-4-[(pyridin-2-yl-methyl)-amino]-nicotinonitrile]	8.13	–
N#Cc1c(OCCc2ccccn2)nc(N)nc1-c1ccco1 [Example 241, 2-Amino-4-furan-2-yl-6-(2-pyridin-2-yl-ethoxy)-pyrimidine-5-carbonitrile]	2.19	–
Cc1coc(-c2nc(N)nc(OCCc3ccccn3)c2C#N)c1 [Example 423, 2-Amino-4-(4-methyl-furan-2-yl)-6-(2-pyridin-2-yl-ethoxy)-pyrimidine-5-carbonitrile]	3.02	–
Nc1nc(OCCCc2ccccc2)c(I)c(-c2ccco2)n1 [Example 267, 4-Furan-2-yl-5-iodo-6-(3-phenyl-propoxy)-pyrimidin-2-yl-amine]	4.37	–
Nc1nc(NCCCc2ccccc2)c(Br)c(-c2ccco2)n1 [Example 208, 5-Bromo-6-furan-2-yl-N4-(3-phenyl-propyl)-pyrimidine-2,4-diamine hydrochloride]	9.12	–
Nc1nc(SCCc2ccccn2)c(Br)c(-c2ccco2)n1 [Example 353, 5-Bromo-4-furan-2-yl-6-(2-pyridin-2-yl-ethylsulfanyl)-pyrimidin-2-yl-amine]	3.8	–
N#Cc1c(OCCc2ccccn2)nc(N)nc1-c1ccc(Cl)o1 [Example 525, 2-Amino-4-(5-chloro-furan-2-yl)-6-(2-pyridin-2-yl-ethoxy)-pyrimidine-5-carbonitrile]	0.871	–
N#Cc1c(OCC=Cc2ccccc2)nc(N)nc1-c1ccco1 [Example 278, 2-Amino-4-furan-2-yl-6-(3-phenyl-allyloxy)-pyrimidine-5-carbonitrile]	3.72	–
Cc1cccc(COc2nc(N)nc(-c3ccc(C)o3)c2C#N)n1 [Example 246, 2-Amino-4-(5-methyl-furan-2-yl)-6-(6-methyl-pyridin-2-ylmethoxy)-pyrimidine-5-carbonitrile]	1.86	–
Cc1cnc(COc2nc(N)nc(-c3cc(Br)co3)c2C#N)c(C)c1 [Example 533, 2-Amino-4-(4-bromo-furan-2-yl)-6-(3,5-dimethyl-pyridin-2-yl-methoxy)-pyrimidine-5-carbonitrile]	1.41	–
N#Cc1c(SCCc2ccccn2)nc(N)nc1-c1ccco1 [Example 313, 2-Amino-4-furan-2—,yl-6-(2-pyridin-2-yl-ethylsulfanyl)-pyrimidine-5-carbonitrile]	0.832	–
N#Cc1c(SCCCc2ccccc2)nc(N)nc1-c1ccccc1 [Example 85, 2-Amino-4-phenyl-6-(3-phenyl-propylsulfanyl)-pyrimidine-5-carbonitrile]	7.94	–
Nc1nc(OCCCc2ccccc2)c(Br)c(-c2ccco2)n1 [Example 230, 5-Bromo-4-furan-2-yl-6-(3-phenyl-propoxy)-pyrimidin-2-yl-amine]	1.66	–
N#Cc1c(OCCc2ccccc2)nc(N)nc1-c1ccccc1 [Example 104, 2-Amino-4-phenethyloxy-6-phenyl-pyrimidine-5-carbonitrile]	3.98	–

Now from value to compound, other results behind:

Ki [1] [nM]	Compound	other results
7.94	N#Cc1c(NCCNc2ccccn2)nc(N)nc1-c1ccco1 [Example 330, 2-Amino-4-furan-2-yl-6-[2-(pyridin-2-ylamino)-ethylamino]-pyrimidine-5-carbonitrile]	–
2.4	N#Cc1c(NCc2cccc(C(F)(F)F)c2)nc(N)nc1-c1ccco1 [Example 346, 2-Amino-4-furan-2-yl-6-(3-trifluoromethyl-benzylamino)-pyrimidine-5-carbonitrile]	–
3.72	Cc1cccc(CNc2nc(N)nc(-c3ccco3)c2C#N)c1 [Example 289, 2-Amino-4-furan-2-yl-6-(3-methyl-benzylamino)-pyrimidine-5-carbonitrile]	–
6.31	N#Cc1c(OCCc2ccccc2)nc(N)nc1-c1ccco1 [Example 53, 2-Amino-4-furan-2-yl-6-phenethyloxy-pyrimidine-5-carbonitrile]	–
3.47	N#Cc1c(NCCOc2ccccc2)nc(N)nc1-c1ccco1 [Example 235, 2-Amino-4-furan-2-yl-6-(2-phenoxy-ethylamino)-pyrimidine-5-carbonitrile]	–
5.5	Cc1ccc(-c2nc(N)nc(NCc3ccccc3)c2C#N)o1 [Example 245, 2-Amino-4-benzylamino-6-(5-methyl-furan-2-yl)-pyrimidine-5-carbonitrile]	–
9.77	CN(C)c1ccc(CNc2nc(N)nc(-c3ccco3)c2C#N)cc1 [Example 312, 2-Amino-4-(4-dimethylamino-benzylamino)-6-furan-2-yl-pyrimidine-5-carbonitrile]	–
3.31	COc1cccc(CNc2nc(N)nc(-c3ccco3)c2C#N)c1 [Example 291, 2-Amino-4-furan-2-yl-6-(3-methoxy-benzylamino)-pyrimidine-5-carbonitrile]	–
2.51	N#Cc1c(NCCCc2ccccc2)nc(N)nc1-c1ccco1 [Example 44, 2-Amino-4-furan-2-yl-6-(3-phenyl-propylamino)-pyrimidine-5-carbonitrile]	–
0.603	Cc1cccnc1COc1nc(N)nc(-c2ccco2)c1C#N [Example 361, 2-Amino-4-furan-2-yl-6-(3-methyl-pyridin-2-yl-methoxy)-pyrimidine-5-carbonitrile]	–
3.8	N#Cc1c(OCc2ccccc2)nc(N)nc1-c1ccco1 [Example 47, 2-Amino-4-benzyloxy-6-furan-2-yl-pyrimidine-5-carbonitrile]	–
5.89	N#Cc1c(OCc2cccnc2)nc(N)nc1-c1ccco1 [Example 219, 2-Amino-4-furan-2-yl-6-(pyridin-3-ylmethoxy)-pyrimidine-5-carbonitrile]	–
3.55	N#Cc1c(NCc2ccccc2N)nc(N)nc1-c1ccco1 [Example 304, 2-Amino-4-(2-amino-benzylamino)-6-furan-2-yl-pyrimidine-5-carbonitrile]	–
6.31	N#Cc1c(NCC2CCc3ccccc3N2)nc(N)nc1-c1ccco1 (racemic) [Example 299, (RS)-2-Amino-4-furan-2-yl-6-[(1,2,3,4-tetrahydro-quinolin-2-ylmethyl)-amino]-pyrimidine-5-carbonitrile]	–
5.13	Cc1ccnc(COc2nc(N)nc(-c3ccco3)c2C#N)c1 [Example 373, 2-Amino-4-furan-2-yl-6-(4-methyl-pyridin-2-yl-methoxy)-pyrimidine-5-carbonitrile]	–
7.76	Cc1ccc(CNc2cc(N)nc(-c3ccco3)c2C#N)nc1 [Example 377, 6-Amino-2-furan-2-yl-4-[(5-methyl-pyridin-2-yl-methyl)-amino]-nicotinonitrile]	–
3.72	COc1ccccc1CNc1nc(N)nc(-c2ccco2)c1C#N [Example 293, 2-Amino-4-furan-2-yl-6-(2-methoxy-benzylamino)-pyrimidine-5-carbonitrile]	–
